Test [1] deals with ovalbumen-induced bronchoconstrictor response. Description: Anti-allergic activity: ovalbumen-induced bronchoconstrictor response in sensitised guinea-pigs. It counts as in vivo, guinea-pigs (male Duncan Hartley). The conditions noted are these: dose 28 μmol/kg i.v. bolus, ovalbumen 1 mg.kg^-1 i.v. challenge 30 min after drug. How it is done:
Male Duncan Hartley guinea-pigs (250-300 g) were sensitised to ovalbumen by i.p. injection of 2 ml of 50 mg.ml^-1 i.p. and 0.2 ml s.c. Three weeks later they were anaesthetised with 60 mg.kg^-1 sodium pentabarbitone. The trachea was cannulated and the animal respired at a rate of 40 breaths per minute and at an initial tracheal inflation pressure of 16 mmHg. Tracheal inflation pressure was measured by a transducer connected to a side arm of the respiration circuit. The carotid artery was cannulated for the measurement of blood pressure and the signal was used to trigger an instantaneous rate meter. A jugular vein was cannulated for the administration of drug and allergen. After surgery the animals were allowed to stabilise and the drug was administered i.v. as a bolus. Following this, ovalbumen 1 mg.kg^-1 was injected i.v. as the antigen challenge either 2, 15 or 30 minutes following drug treatment and the peak bronchoconstrictor response recorded. For the control group ovalbumen only was given. One ovalbumen challenge per guinea-pig was used and n=6 for each time point. The percentage increase in tracheal inflation pressure was calculated. The following results indicating an anti-allergic activity were obtained.

Test [2] deals with calmodulin insensitive cyclic GMP phosphodiesterase (Homo sapiens, UniProt O76074). Description: Phosphodiesterase activity: inhibition of calmodulin insensitive cyclic GMP phosphodiesterase. Type of test: biochemical. The note with it: procedure of European Patent Application No. 293063; read-out: IC50 (concentration of inhibitor required for 50% inhibition of enzyme activity).

Test [3] concerns hindquarter vascular resistance. Description: Vasodilatation in vivo: hindquarter blood flow, perfused hind quarters. Details: species or system rats (male Wistar). The conditions noted are these: anaesthetised rats; bolus i.v., 10 μmol/kg. How it is done: Male Wistar rats (300 g) were anaesthetised with a sodium 5-ethyl-5-(I-methylpropyl)-2-thiobarbiturate/sodium pentobarbitone mixture i.p. (62.5 and 22.5 mg/kg respectively). The trachea was cannulated and the rats breathed spontaneously air enriched with O2 (5 ml/min). Blood pressure was recorded from a carotid artery and a jugular vein was cannulated for the administration of compounds. The temperature of the animal was maintained at 37° C. by the use of an electric blanket. […] The perfusion circuit was primed with 5% bovine serum albumin dissolved in 0.9% sodium chloride solution, pH adjusted to 7.4. Initially the pump rate was set between 10 and 15 ml/min to match the hind quarter perfusion pressure to that of the systemic circulation. Once set, the pressure remained unaltered for the rest of the experiment. A change in the speed of the pump (equivalent to hindquarter blood flow) was used to assess the changes in hindquarter vascular resistance.

Regarding `CCCOc1ccccc1-c1nc2ncccc2c(=O)[nH]1` [Example 1, 2-(2-Propoxyphenyl)pyrido[2,3-d]pyrimid-4(3H)-one], the “% Inhibition of Control Bronchoconstrictor Response 30 min after drug administration” value in test [1] is given as 9%.

Consider `CCCOc1ccccc1-c1nc2ncc(=O)[nH]c2c(=O)[nH]1` [Example 6, 2-(2-Propoxyphenyl)pteridin-4,6(3H,5H)-dione], for which, in test [2], the IC50 lay in the range of 0.55 to 11.4 µM.

For the compound `CCCOc1ccccc1-c1nc2[nH]c(=O)c(=O)[nH]c2c(=O)[nH]1` [Example 7, 2-(2-Propoxyphenyl)pteridin-4,6,7(3H,5H,8H)-trione], in test [2], the IC50 is 0.55 to 11.4 µM.

`CCCOc1ccccc1-c1nc2nnc(NC)nc2c(=O)[nH]1` [Example 10, 3-Methylamino-5,6-dihydro-5-oxo-7-(2-propoxyphenyl)pyrimido[5,4-e][1,2,4]triazine]: the IC50 in test [2] was in the range of 0.55 to 11.4 µM.

`CCCOc1ccccc1-c1nc2nnc(OC)nc2c(=O)[nH]1` [Example 11, 3-Methoxy-5,6-dihydro-5-oxo-7-(2-propoxyphenyl)pyrimido[5,4-e][1,2,4]triazine]: the IC50 in test [2] is 0.55 to 11.4 µM.

For `CCCOc1ccccc1-c1nc2nc(SC)nnc2c(=O)[nH]1` [Example 12, 3-Methylthio-8-oxo 6-(2-propoxyphenyl)-7,8-dihydropyrimido[4,5-e][1,2,4]triazine], the “increase in hindquarter blood flow” value in test [3] is given as 38%.
